# Experimental data: US20100272680A1, “Piperidinyl Cyclic Amido Antiviral Agents” (priority 2009, published 2010)
# How the values were obtained:
# HCV Genotype 1B Replicon = test: Replicon assay, genotype 1b subgenomic replicon (ET cell line), luciferase readout; type: cell-based; details: Hepatitis C virus, 48 h, Table 3; luciferase activity after 48 hours
# Protocol: (§1) Compounds were assayed for activity against HCV using the genotype 1a and 1b subgenomic replicon model systems. Stable cell lines bearing the genotype 1a and 1b replicons were used for screening of compounds. Both replicons are bicistonic and contain the firefly luciferase gene. The ET cell line is stably transfected with RNA transcripts harboring a I389luc-ubi-neo/NS3-3′/ET replicon with firefly luciferase-ubiquitin-neomycin phosphotransferase fusion protein and EMCV-IRES driven NS3-5B polyprotein containing the cell culture adaptive mutations (E1202G; T12801; K1846T) (Krieger at al, 2001 and unpublished). The genotype 1a replicon is a stable cell line licensed from Apath LLC, modified to contain the firefly luciferase gene. The cells were grown in DMEM, supplemented with 10% fetal calf serum, 2 mM Glutamine, Penicillin (100 IU/mL)/Streptomycin (100 μg/mL), 1× nonessential amino acids, and 250-500 μg/mL G418 (“Geneticin”). They were all available through Life Technologies (Bethesda, Md.). The cells were plated at 0.5×10^4 cells/well in 384 well plates containing compounds. The final concentration of compounds ranged between 0.03 μM to 50 μm and the final DMSO concentration of 0.5-1%.
# (§2) Luciferase activity was measured 48 hours later by adding a Steady glo (Promega, Madison, Wis.). Percent inhibition of replication data was plotted relative to no compound control. Under the same condition, cytotoxicity of the compounds was determined using cell titer glo (Promega, Madison, Wis). IC50s were determined from a 10 point dose response curve using 3-4-fold serial dilution for each compound, which spans a concentration range >1000 fold. BioAssay determines the level of inhibition for each compound by normalizing cross-talk corrected plate values against the negative […] controls to determine Percent Inhibition:
# (§3) These normalized values are exported to EC50 where they are plotted against the molar compound concentrations using the standard four parameter logistic equation: […]
# (§4) Some EC50 measurements were repeated a second time and for both 1A and 1B genotypes after those reported in Table 2 for compounds 101-108 and the repeated data was reported in Table 3.
# HCV Genotype 1A Replicon = test: Replicon assay, genotype 1a subgenomic replicon, luciferase readout; type: cell-based; details: Hepatitis C virus, 48 h, Table 3; luciferase activity after 48 hours
# Protocol: as §1, §2, §3, §4
Compound,EC50 (HCV Genotype 1B Replicon),EC50 (HCV Genotype 1A Replicon)
"CC(C)Cc1cc(C(F)(F)F)c2nc(C(=O)N3CCC(N4C(=O)COC4=O)CC3)c(Cl)n2c1 [Compound 140, 3-(1-{[3-chloro-6-(2-methylpropyl)-8-(trifluoromethyl)imidazo[1,2-a]pyridin-2-yl]carbonyl}-4-piperidinyl)-1,3-oxazolidine-2,4-dione]",150 nM,50 nM
"CCC(C)c1cc(C(F)(F)F)c2nc(C(=O)N3CCC(N4CCOC4=O)CC3)c(Cl)n2c1 (centres unmarked) [Compound 141, 3-(1-{[3-chloro-6-(1-methylpropyl)-8-(trifluoromethyl)imidazo[1,2-a]pyridin-2-yl]carbonyl}-4-piperidinyl)-1,3-oxazolidin-2-one]",550 nM,160 nM
"O=C(c1nc2c(C(F)(F)F)cc(Br)cn2c1Cl)N1CCC(N2C(=O)COC2=O)CC1 [Compound 142, 3-(1-{[6-bromo-3-chloro-8-(trifluoromethyl)imidazo[1,2-a]pyridin-2-yl]carbonyl}-4-piperidinyl)-1,3-oxazolidine-2,4-dione]",70 nM,70 nM
"O=C(c1nc2c(C(F)(F)F)cc(Br)cn2c1Cl)N1CCC(N2CCCC2=O)CC1 [Compound 143, 1-(1-{[6-bromo-3-chloro-8-(trifluoromethyl)imidazo[1,2-a]pyridin-2-yl]carbonyl}-4-piperidinyl)-2-pyrrolidinone]",200 nM,480 nM
"O=C(c1nc2c(C(F)(F)F)cc(OC(F)F)cn2c1Cl)N1CCC(N2CCOC2=O)CC1 [Compound 144, 3-(1-{[3-chloro-6-[(difluoromethyl)oxy]-8-(trifluoromethyl)imidazo[1,2-a]pyridin-2-yl]carbonyl}-4-piperidinyl)-1,3-oxazolidin-2-one]",50 nM,20 nM
"O=C(c1nc2c(C(F)(F)F)cc(OC(F)F)cn2c1Cl)N1CCC(N2C(=O)COC2=O)CC1 [Compound 145, 3-(1-{[3-chloro-6-[(difluoromethyl)oxy]-8-(trifluoromethyl)imidazo[1,2-a]pyridin-2-yl]carbonyl}-4-piperidinyl)-1,3-oxazolidine-2,4-dione]",50 nM,50 nM
"O=C(c1nc2c(C(F)(F)F)cc(-c3ccco3)cn2c1Cl)N1CCC(N2CCOC2=O)CC1 [Compound 146, 3-(1-{[3-chloro-6-(2-furanyl)-8-(trifluoromethyl)imidazo[1,2-a]pyridin-2-yl]carbonyl}-4-piperidinyl)-1,3-oxazolidin-2-one]",30 nM,20 nM
"O=C(c1nc2c(C(F)(F)F)cc(-c3cc[nH]c3)cn2c1Cl)N1CCC(N2CCOC2=O)CC1 [Compound 147, 3-(1-{[3-chloro-6-(1H-pyrrol-3-yl)-8-(trifluoromethyl)imidazo[1,2-a]pyridin-2-yl]carbonyl}-4-piperidinyl)-1,3-oxazolidin-2-one]",20 nM,20 nM
"O=C(c1nc2c(C(F)(F)F)cc(-c3cn[nH]n3)cn2c1Cl)N1CCC(N2CCOC2=O)CC1 [Compound 148, 3-(1-{[3-chloro-6-(2H-1,2,3-triazol-4-yl)-8-(trifluoromethyl)imidazo[1,2-a]pyridin-2-yl]carbonyl}-4-piperidinyl)-1,3-oxazolidin-2-one]",540 nM,220 nM
"O=C(c1nc2c(C(F)(F)F)cc(-c3ncc[nH]3)cn2c1Cl)N1CCC(N2CCOC2=O)CC1 [Compound 149, 3-(1-{[3-chloro-6-(1H-imidazol-2-yl)-8-(trifluoromethyl)imidazo[1,2-a]pyridin-2-yl]carbonyl}-4-piperidinyl)-1,3-oxazolidin-2-one]",80 nM,2250 nM
"O=C(c1nc2c(C(F)(F)F)cc(-c3ccc[nH]3)cn2c1Cl)N1CCC(N2CCOC2=O)CC1 [Compound 150, 3-(1-{[3-chloro-6-(1H-pyrrol-2-yl)-8-(trifluoromethyl)imidazo[1,2-a]pyridin-2-yl]carbonyl}-4-piperidinyl)-1,3-oxazolidin-2-one]",450 nM,230 nM
"Cc1cc(C(F)(F)F)c2nc(C(=O)N3CCC(N4CCOC4=O)CC3)c(Cl)n2c1 [Compound 151, 3-(1-{[3-chloro-6-methyl-8-(trifluoromethyl)imidazo[1,2-a]pyridin-2-yl]carbonyl}-4-piperidinyl)-1,3-oxazolidin-2-one]",500 nM,650 nM
"CCc1cc(C(F)(F)F)c2nc(C(=O)N3CCC(N4CCOC4=O)CC3)c(Cl)n2c1 [Compound 152, 3-(1-{[3-chloro-6-ethyl-8-(trifluoromethyl)imidazo[1,2-a]pyridin-2-yl]carbonyl}-4-piperidinyl)-1,3-oxazolidin-2-one]",70 nM,50 nM
"C=Cc1cc(C(F)(F)F)c2nc(C(=O)N3CCC(N4CCOC4=O)CC3)c(Cl)n2c1 [Compound 153, 3-(1-{[3-chloro-6-ethenyl-8-(trifluoromethyl)imidazo[1,2-a]pyridin-2-yl]carbonyl}-4-piperidinyl)-1,3-oxazolidin-2-one]",70 nM,80 nM
"CC(C)c1cc(C(F)(F)F)c2nc(C(=O)N3CCC(N4CCOC4=O)CC3)c(Cl)n2c1 [Compound 154, 3-(1-{[3-chloro-6-(1-methylethyl)-8-(trifluoromethyl)imidazo[1,2-a]pyridin-2-yl]carbonyl}-4-piperidinyl)-1,3-oxazolidin-2-one]",20 nM,20 nM
"CC(O)c1cc(C(F)(F)F)c2nc(C(=O)N3CCC(N4CCOC4=O)CC3)c(Cl)n2c1 (centres unmarked) [Compound 155, 3-(1-{[3-chloro-6-(1-hydroxyethyl)-8-(trifluoromethyl)imidazo[1,2-a]pyridin-2-yl]carbonyl}-4-piperidinyl)-1,3-oxazolidin-2-one]",1080 nM,630 nM
"O=C(c1nc2c(C(F)(F)F)cc(C3CC3)cn2c1Cl)N1CCC(N2CCOC2=O)CC1 [Compound 156, 3-(1-{[3-chloro-6-cyclopropyl-8-(trifluoromethyl)imidazo[1,2-a]pyridin-2-yl]carbonyl}-4-piperidinyl)-1,3-oxazolidin-2-one]",10 nM,10 nM
"O=C(c1nc2c(C(F)(F)F)cc(C(F)F)cn2c1Cl)N1CCC(N2CCOC2=O)CC1 [Compound 157, 3-(1-{[3-chloro-6-(difluoromethyl)-8-(trifluoromethyl)imidazo[1,2-a]pyridin-2-yl]carbonyl}-4-piperidinyl)-1,3-oxazolidin-2-one]",150 nM,20 nM
"O=C(c1nc2c(C(F)(F)F)cc(-c3ccoc3)cn2c1Br)N1CCC(N2CCOC2=O)CC1 [Compound 158, 3-(1-{[3-bromo-6-(3-furanyl)-8-(trifluoromethyl)imidazo[1,2-a]pyridin-2-yl]carbonyl}-4-piperidinyl)-1,3-oxazolidin-2-one]",40 nM,10 nM
"O=C(c1nc2c(C(F)(F)F)cc(-c3ccoc3)cn2c1Br)N1CCC(N2C(=O)COC2=O)CC1 [Compound 159, 3-(1-{[3-bromo-6-(3-furanyl)-8-(trifluoromethyl)imidazo[1,2-a]pyridin-2-yl]carbonyl}-4-piperidinyl)-1,3-oxazolidine-2,4-dione]",30 nM,30 nM
"N#Cc1c(C(=O)N2CCC(N3CCOC3=O)CC2)nc2c(C(F)(F)F)cc(-c3ccoc3)cn12 [Compound 160, 6-(3-furanyl)-2-{[4-(2-oxo-1,3-oxazolidin-3-yl)-1-piperidinyl]carbonyl}-8-(trifluoromethyl)imidazo[1,2-a]pyridine-3-carbonitrile]",10 nM,10 nM
"N#Cc1c(C(=O)N2CCC(N3C(=O)COC3=O)CC2)nc2c(C(F)(F)F)cc(-c3ccoc3)cn12 [Compound 161, 2-{[4-(2,4-dioxo-1,3-oxazolidin-3-yl)-1-piperidinyl]carbonyl}-6-(3-furanyl)-8-(trifluoromethyl)imidazo[1,2-a]pyridine-3-carbonitrile]",30 nM,30 nM
"N#Cc1c(C(=O)N2CCC(N3CCOC3=O)CC2)nc2c(C(F)(F)F)cc(C3CC3)cn12 [Compound 162, 6-cyclopropyl-2-{[4-(2-oxo-1,3-oxazolidin-3-yl)-1-piperidinyl]carbonyl}-8-(trifluoromethyl)imidazo[1,2-a]pyridine-3-carbonitrile]",10 nM,10 nM
"O=C(c1nc2c(C(F)(F)F)cc(C3CC3)cn2c1Cl)N1CCC(N2CC(O)CC2=O)CC1 (centres unmarked) [Compound 163, 1-(1-{[3-chloro-6-cyclopropyl-8-(trifluoromethyl)imidazo[1,2-a]pyridin-2-yl]carbonyl}-4-piperidinyl)-4-hydroxy-2-pyrrolidinone]",80 nM,380 nM
"Cc1c(C(=O)N2CCC(N3CCOC3=O)CC2)nc2c(C(F)(F)F)cc(-c3ccoc3)cn12 [Compound 164, 3-(1-{[6-(3-furanyl)-3-methyl-8-(trifluoromethyl)imidazo[1,2-a]pyridin-2-yl]carbonyl}-4-piperidinyl)-1,3-oxazolidin-2-one]",100 nM,30 nM
